Reference: patent US9688733B2, “Method for treating spinal cord injury using HMGB1 fragment” (GENOMIX CO., LTD, priority 2012, dated 2017)
Entries after “also recorded” stand apart in the source; their conditions may differ.

Columns and labels:
[1] = system: mouse bone marrow mesenchymal stem cell line (MSC-1 cell); test: Migration-promoting activity in chemotaxis chamber; type: cell-based; conditions: MSC-1 cells; for migration-promoting activity: 100 μg/ml in lower chamber, positive control full-length mouse HMGB1 (1-215(HEK)), FIG. 1A
Experimental: The peptides listed below were custom synthesized using the solid phase method by Medical & Biological Laboratories (MBL). The peptides were synthesized based on the mouse HMGB1 sequence. Amino acid sequences from positions 1 to 169 of mouse HMGB1 and human HMGB1 are identical, i.e., shares 100% sequence homology.
the full-length mouse HMGB1 produced in HEK293 (1-215(HEK)) as a positive control were adjusted to 100 μg/ml and placed in the lower chamber of a chemotaxis chamber to assess the migration-promoting activity on mouse bone marrow mesenchymal stem cell line (MSC-1 cell; produced by Osaka University, Tamai et al., (Tamai et al., Proc Natl Acad Sci USA., 108(16): 6609-6614, 2011)). (Results)
As positive controls, centrifuged supernatant of the skin of a one-day-old mouse (one individual) incubated in PBS at 4° C. for 12 hours, and the full-length mouse HMGB1 produced in HEK293 (1-215(HEK)) were used. Cells of a bone marrow mesenchymal stem cell line (MSC-1) were placed in the upper chamber of a chemotaxis chamber, and the protein and synthetic peptides were added at a concentration of 5 μM or 10 μM to the lower chamber of the chemotaxis chamber. The migration assay was carried out by the same method as described above.

[2] = system: C57BL6/J mice with traumatic injury of the spinal cord; test: Neurologic symptoms (Basso Mouse Scale score) in mice with traumatic injury of the spinal cord; type: in vivo; conditions: five daily administrations
From the text: (§1) Seven-week-old female C57BL6/J mice were used as test animals. After the mice were anesthetized by isoflurane inhalation, skin incision was made along the dorsal midline, and the vertebral arch of the ninth thoracic vertebra was exposed and excised. Dura mater was exposed at the same site, and the spinal cord was held epidurally for three seconds using a microneedle holder to produce a traumatic injury of the spinal cord. After generation of injury of the spinal cord, the skin was sutured. […] The assay reagent was prepared by diluting 100 μg of an HMGB1 fragment (amino acid sequence: amino acids of positions 11 to 44; synthesized peptide produced at MBL) in 200 μL of Dulbecco's PBS (D-PBS). 200 μL of D-PBS was used for the negative control. On the next day of operation, the first administration was performed through the tail vein, and this was followed by a total of five daily administrations. Neurologic symptoms were assessed using the Basso Mouse Scale (BMS) score on Days 1, 3, 7, 10, 14, 17, and 21 post operation.
Seven-week-old female C57BL6/J mice were used as test animals. After the mice were anesthetized by isoflurane inhalation, skin incision was made along the dorsal midline, and the vertebral arch of the ninth thoracic vertebra was exposed and excised. Dura mater was exposed at the same site, and the spinal cord was held epidurally for three seconds using a microneedle holder to produce a traumatic injury of the spinal cord. After production of injury of the spinal cord, the skin was sutured. […] An HMGB1 fragment (amino acid sequence: the amino acids of positions 11 to 44; synthetic peptide produced at MBL) was prepared by diluting 100 μg of the fragment in 200 μL of Dulbecco's PBS (D-PBS). The full-length HMGB1 protein was produced by expressing it in HEK293 as reported previously, and the purified HMGB1 (100 μg) was dissolved in 200 μL of D-PBS. 200 μL of D-PBS was used for the negative control. On the next day of operation, the first administration was performed through the tail vein, and this was followed by a total of five daily administrations. Neurologic symptoms were assessed using the BMS score on Days 1, 3, 7, and 14 post operation.
Seven-week-old female C57BL6/J mice were used as test animals. The mice were anesthetized by isoflurane inhalation, skin incision was made along the dorsal midline, and the vertebral arch of the ninth thoracic vertebra was exposed and excised. Dura mater was exposed at the same site, and the spinal cord was held epidurally for three seconds using a microneedle holder to produce a traumatic injury of the spinal cord. After production of injury of the spinal cord, the skin was sutured. […] HMGB1 fragments (amino acid sequences: amino acids from positions 11 to 44 and amino acids from positions 1 to 44; synthetic peptides produced at MBL) were prepared by diluting 100 μg of the fragment in 200 μL of D-PBS. 200 μL of D-PBS was used for the negative control. On the next day of operation, the first administration was performed via the tail vein, and this was followed by a total of five daily administrations. Neurologic symptoms were assessed using the BMS score on Days 1, 3, 7, 10, 14, 17, 21, and 28 post operation.

[3] = system: C57BL6/J mice with traumatic injury of the spinal cord; test: HE staining of the damaged region of the spinal cord; type: in vivo, mouse; conditions: Example 2, 100 μg tail vein, five daily administrations, vs negative control (PBS), FIG. 2B
From the text: as §1

synthetic peptide (17-25): synthetic peptide consisting of the amino acid sequence from positions 17 to 25 of HMGB1 (SEQ ID NO: 3) (AFFVQTCRE; Synthesized peptide from the HMGB1 protein)
migration-stimulating activity ([1]; 5 μM or 10 μM in lower chamber, FIG. 1B): smallest fragment with migration-stimulating activity; also recorded: smallest fragment that has the migration-stimulating activity

synthetic peptide (11-34): synthetic peptide consisting of the amino acid sequence from positions 11 to 34 of HMGB1 (GKMSSYAFFVQTCREEHKKKHPDA; UniProt P63158 11-34, looked up, fragment)
migration-promoting activity [1]: activity comparable to or higher than that of the positive control

synthetic peptide (11-44): synthetic peptide consisting of the amino acid sequence from positions 11 to 44 of HMGB1 (SEQ ID NO: 4) (GKMSSYAFFVQTCREEHKKKHPDASVNFSEFSKK; Synthesized peptide from the HMGB1 protein)
improvement of neurologic symptoms (BMS score) ([2]; Example 2, 100 μg in 200 μL D-PBS, tail vein, Days 1-21 post operation, vs PBS, FIG. 2A, listed as HMGB1 fragment): significant improvement of neurologic symptoms was observed from Day 3 post operation; also recorded: remarkable improvement of symptoms was observed on Days 3, 7, 14, and 17 post operation | improvement of neurologic symptoms (BMS score) ([2]; Example 2, 100 μg in 200 μL D-PBS, tail vein, Days 1-21 post operation, vs PBS, FIG. 2A, listed as HMGB1 fragment (11-44)): significant effects of improving neurologic symptoms were observed | improvement of neurologic symptoms (BMS score) ([2]; Example 3, 100 μg tail vein, Days 1, 3, 7, 14, fragment vs full-length vs PBS, FIG. 3, listed as HMGB1 fragment (amino acids at positions 11-44)): most effective; also recorded: much more satisfactory improvement of the therapeutic effect | improvement of neurologic symptoms (BMS score) ([2]; Example 4, 100 μg tail vein, Days 1-28 post operation, vs PBS, FIG. 4): therapeutic effects were observed; also recorded: effective in treating injury of the spinal cord | improvement of neurologic symptoms (BMS score) ([2]; Example 4, 100 μg tail vein, Days 1-28 post operation, vs PBS, FIG. 4, listed as HMGB1 fragment consisting of the amino acids from positions 11 to 44): comparable therapeutic effects | migration-promoting activity [1]: activity comparable to or higher than that of the positive control | size of damaged region of the spinal cord (HE staining) ([3]; listed as HMGB1 fragment (11-44)): size of the area of injury of the spinal cord decreased | size of damaged region of the spinal cord (HE staining) ([3]; listed as HMGB1 fragment (11-44 peptide)): reduced

synthetic peptide (11-25): synthetic peptide consisting of the amino acid sequence from positions 11 to 25 of HMGB1 (GKMSSYAFFVQTCRE; UniProt P63158 11-25, looked up, fragment)
migration-promoting activity [1]: found to have the activity

synthetic peptide (1-34): synthetic peptide consisting of the amino acid sequence from positions 1 to 34 of HMGB1 (MGKGDPKKPRGKMSSYAFFVQTCREEHKKKHPDA; UniProt P63158 1-34, looked up, fragment)
migration-promoting activity [1]: activity comparable to or higher than that of the positive control

synthetic peptide (1-44): peptide consisting of the amino acids at positions 1 to 44 of the HMGB1 protein (SEQ ID NO: 5) (MGKGDPKKPRGKMSSYAFFVQTCREEHKKKHPDASVNFSEFSKK; Synthesized peptide from the HMGB1 protein)
improvement of neurologic symptoms (BMS score) ([2]; Example 4, 100 μg tail vein, Days 1-28 post operation, vs PBS, FIG. 4, listed as 1-44): therapeutic effects were observed; also recorded: effective in treating injury of the spinal cord | improvement of neurologic symptoms (BMS score) ([2]; Example 4, 100 μg tail vein, Days 1-28 post operation, vs PBS, FIG. 4, listed as HMGB1 fragment consisting of the amino acids from positions 1 to 44): comparable therapeutic effects | migration-promoting activity [1]: activity comparable to or higher than that of the positive control

synthetic peptide (11-30): synthetic peptide consisting of the amino acid sequence from positions 11 to 30 of HMGB1 (GKMSSYAFFVQTCREEHKKK; UniProt P63158 11-30, looked up, fragment)
migration-promoting activity [1]: activity comparable to or higher than that of the positive control

B1: full-length HMGB1: full-length HMGB1 protein produced by expressing it in HEK293, purified; positive control / comparator (protein, UniProt P63158 1-215, looked up)
chain: MGKGDPKKPRGKMSSYAFFVQTCREEHKKKHPDASVNFSEFSKKCSERWKTMSAKEKGKFEDMAKADKARYEREMKTYIPPKGETKKKFKDPNAPKRPPSAFFLFCSEYRPKIKGEHPGLSIGDVAKKLGEMWNNTAADDKQPYEKKAAKLKEKYEKDIAAYRAKGKPDAAKKGVVKAEKSKKKKEEEDDEEDEEDEEEEEEEEDEDEEEDDDDE
modifications: full-length
notes: full-length HMGB1 protein produced by expressing it in HEK293, purified; positive control / comparator
improvement of neurologic symptoms (BMS score) ([2]; Example 3, 100 μg tail vein, Days 1, 3, 7, 14, fragment vs full-length vs PBS, FIG. 3): intermediate between the effect in the HMGB1 fragment (amino acids at positions 11-44)-administered group and that in the negative control group | improvement of neurologic symptoms (BMS score) ([2]; Example 3, 100 μg tail vein, Days 1, 3, 7, 14, fragment vs full-length vs PBS, FIG. 3, listed as HMGB1 (full-length)): therapeutic effect was observed; also recorded: not as effective as that in the HMGB1 fragment
